Data taken from patent US20030095958A1, “Inhibitors of bace” (priority 2001, published 2003).

molecular target: BACE (Homo sapiens, UniProt P56817); assay: Ki Determination for the Inhibition of BACE (FS-1 peptide fluorescence cleavage assay); assay type: biochemical; settings: apparent Ki; 50 nM BACE, 10 μM FS-1 substrate, 0.1M sodium acetate pH 4.5
Summary of the method: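 Human BACE (50 nM) was preincubated 15 min at room temperature with compound (2% DMSO) in 0.1 M sodium acetate pH 4.5, then 10 μM FS-1 peptide was added. Cleavage was followed by fluorescence (ex 355/em 495 nm), and apparent Ki came from fitting to the integrated competitive tight-binding inhibition equation.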

Sequence of BACE (P56817 46-501): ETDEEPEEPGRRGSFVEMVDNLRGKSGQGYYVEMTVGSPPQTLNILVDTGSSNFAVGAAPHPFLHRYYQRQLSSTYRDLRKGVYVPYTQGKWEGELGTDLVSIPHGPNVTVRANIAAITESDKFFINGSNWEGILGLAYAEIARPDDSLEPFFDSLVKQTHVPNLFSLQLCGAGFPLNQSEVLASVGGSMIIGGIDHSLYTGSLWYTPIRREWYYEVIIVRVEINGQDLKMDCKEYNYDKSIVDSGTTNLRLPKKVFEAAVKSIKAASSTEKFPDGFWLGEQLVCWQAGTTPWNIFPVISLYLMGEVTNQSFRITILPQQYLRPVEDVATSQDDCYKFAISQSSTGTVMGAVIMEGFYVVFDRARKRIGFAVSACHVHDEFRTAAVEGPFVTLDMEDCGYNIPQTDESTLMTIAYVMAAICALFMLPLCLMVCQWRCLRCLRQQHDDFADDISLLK

| SMILES | Ki [µM] |
| --- | --- |
| O=C(Nc1cc(-c2cc(Cl)cc(Cl)c2Cl)ccc1N1CCNCC1)c1cccc2ccccc12 [Compound 109, Naphthalene-1-carboxylic acid (2′,3′,5′-trichloro-4-piperazin-1-yl-biphenyl-3-yl)-amide] | < 3 |
| O=C(Nc1cc(-c2ccoc2)ccc1N1CCNCC1)c1cccc2ccccc12 [Compound 152, Naphthalene-1-carboxylic acid (5-furan-3-yl-2-piperazin-1-yl-phenyl)-amide] | > 30 |
| FC(F)(F)c1ccccc1OCc1ccc(COc2ccc(-c3ccccc3)cc2-c2ccccc2)c(C2=CCNCC2)c1 [Compound 326, 4-[2-([1,1′;3′,1′′]Terphenyl-4′-yloxymethyl)-5-(2-trifluoromethyl-phenoxymethyl)-phenyl]-1,2,3,6-tetrahydro-pyridine] | 3 to 30 |
| O=C(Nc1cc(-c2cccc(Cl)c2Cl)ccc1N1CCNCC1)c1cccc2ccccc12 [Compound 106, Naphthalene-1-carboxylic acid (2′,3′-dichloro-4-piperazin-1-yl-biphenyl-3-yl)-amide] | < 3 |
| O=C(Nc1ccc2ccccc2c1)C1CNCCC1c1ccc(COc2ccccc2C(F)(F)F)cc1 (stereo not drawn) [Compound 216, 4-[4-(2-Trifluoromethyl-phenoxymethyl)-phenyl]-piperidine-3-carboxylic acid naphthalen-2-ylamide] | 3 to 30 |
| O=C(Nc1cc(-c2ccc(F)c(Cl)c2)ccc1N1CCNCC1)c1cccc2ccccc12 [Compound 104, Naphthalene-1-carboxylic acid (3′-chloro-4′-fluoro-4-piperazin-1-yl-biphenyl-3-yl)-amide] | < 3 |
| CC(C)NS(=O)(=O)c1ccc(-c2ccc(N3CCNCC3)c(NC(=O)c3cccc4ccccc34)c2)cc1 [Compound 144, Naphthalene-1-carboxylic acid (4′-isopropylsulfamoyl-4-piperazin-1-yl-biphenyl-3-yl)-amide] | 3 to 30 |
| COC(=O)c1cc(C2=CCNCC2)c(COc2ccccc2C(F)(F)F)cc1C1=CCNCC1 [Compound 382, 2,5-Bis-(1,2,3,6-tetrahydro-pyridin-4-yl)-4-(2-trifluoromethyl-phenoxymethyl)-benzoic acid methyl ester] | 3 to 30 |
| COc1ccc(-c2ccc(N3CCNCC3)c(NC(=O)c3cccc4ccccc34)c2)cc1 [Compound 120, Naphthalene-1-carboxylic acid (4′-methoxy-4-piperazin-1-yl-biphenyl-3-yl)-amide] | 3 to 30 |
| O=C(c1cccc2ccccc12)n1c2c(c3cc(OCc4ccccc4OC(F)F)ccc31)CCNC2 [Compound 529, [6-(2-Difluoromethoxy-benzyloxy)-1,2,3,4-tetrahydro-b-carbolin-9-yl]-naphthalen-1-yl-methanone] | < 3 |
| Nc1cc2ccccc2cc1NC(=O)c1ccc(COc2ccccc2C(F)(F)F)cc1C1=CCNCC1 [Compound 311, N-(3-Amino-naphthalen-2-yl)-2-(1,2,3,6-tetrahydro-pyridin-4-yl)-4-(2-trifluoromethyl-phenoxymethyl)-benzamide] | 3 to 30 |
| Nc1ccccc1-c1ccc(C2=CCNCC2)c(COc2ccccc2C(F)(F)F)c1 [Compound 376, 4′-(1,2,3,6-Tetrahydro-pyridin-4-yl)-3′-(2-trifluoromethyl-phenoxymethyl)-biphenyl-2-ylamine] | 3 to 30 |
| O=C(Nc1cc(-c2ccccc2Cl)ccc1N1CCNCC1)c1cccc2ccccc12 [Compound 122, Naphthalene-1-carboxylic acid (2′-chloro-4-piperazin-1-yl-biphenyl-3-yl)-amide] | 3 to 30 |
| O=C(Nc1cc(-c2ccccc2)cc(COc2ccccc2C(F)(F)F)c1N1CCNCC1)c1nccc2ccccc12 [Compound 177, Isoquinoline-1-carboxylic acid [4-piperazin-1-yl-5-(2-trifluoromethyl-phenoxymethyl)-biphenyl-3-yl]-amide] | < 3 |
| COC(=O)c1cccc(OCc2ccc(COc3ccccc3C(F)(F)F)cc2C2=CCNCC2)c1 [Compound 328, 3-[2-(1,2,3,6-Tetrahydro-pyridin-4-yl)-4-(2-trifluoromethyl-phenoxymethyl)-benzyloxy]-benzole acid methyl ester] | 3 to 30 |
| O=C(c1ccc2ccccc2c1)n1c2c(c3cc(OCc4ccc(OC(F)F)cc4)ccc31)CCNC2 [Compound 515, [6-(4-Difluoromethoxy-benzyloxy)-1,2,3,4-tetrahydro-b-carbolin-9-yl]-naphthalen-2-yl-methanone] | < 3 |
| FC(F)(F)c1ccccc1OCc1cc(-c2ccccc2Cl)ccc1C1=CCNCC1 [Compound 373, 4-[2′-Chloro-3-(2-trifluoromethyl-phenoxymethyl)-biphenyl-4-yl]-1,2,3,6-tetrahydro-pyridine] | < 3 |
| O=C(Nc1cc(C(F)(F)F)ccc1N1CCNCC1)c1cccc2cccnc12 [Compound 149, Quinoline-8-carboxylic acid (2-piperazin-1-yl-5-trifluoromethyl-phenyl)-amide] | 3 to 30 |
| O=C(Nc1ccccc1)C1CNCCC1c1ccc(COc2ccccc2C(F)(F)F)cc1 (stereo not drawn) [Compound 204] | > 30 |
| FC(F)(F)c1ccccc1OCc1cc(-c2ccccc2Cl)c(COc2ccccc2C(F)(F)F)cc1C1=CCNCC1 [Compound 348, 4-[2′-Chloro-2,5-bis-(2-trifluoromethyl-phenoxymethyl)-biphenyl-4-yl]-1,2,3,6-tetrahydro-pyridine] | < 3 |
| FC(F)(F)c1ccccc1OCc1ccc(COc2ccccc2C(F)(F)F)c(C2=CCNCC2)c1 [Compound 303, 4-[2,5-Bis-(2-trifluoromethyl-phenoxymethyl)-phenyl]-1,2,3,6-tetrahydro-pyridine] | < 3 |
| COC(=O)c1ccc(OCc2ccc(COc3ccccc3C(F)(F)F)cc2C2=CCNCC2)cc1 [Compound 329, 4-[2-(1,2,3,6-Tetrahydro-pyridin-4-yl)-4-(2-trifluoromethyl-phenoxymethyl)-benzyloxy]-benzoic acid methyl ester] | 3 to 30 |
| O=C(Nc1cc(F)c(-c2ccc(Cl)c(Cl)c2)cc1N1CCNCC1)c1cccc2ccccc12 [Compound 175, Naphthalene-1-carboxylic acid (3′,4′-dichloro-2-fluoro-5-piperazin-1-yl-biphenyl-4-yl)-amide] | < 3 |
| Cc1cc(N2CCNCC2)c(NC(=O)c2cccc3ccccc23)cc1-c1ccsc1 [Compound 155, Naphthalene-1-carboxylic acid (4-methyl-2-piperazin-1-yl-5-thiophen-3-yl-phenyl)-amide] | 3 to 30 |
| COc1cc(COc2ccc3c(c2)c2c(n3C(=O)c3ccc4ccccc4c3)CNCC2)cc(OC)c1 [Compound 527, [6-(3,5-Dimethoxy-benzyloxy)-1,2,3,4-tetrahydro-b-carbolin-9-yl]-naphthalen-2-yl-methanone] | < 3 |
| O=C(Nc1cc(-c2ccc(Cl)cc2)ccc1N1CCNCC1)c1cccc2ccccc12 [Compound 121, Naphthalene-1-carboxylic acid (4′-chloro-4-piperazin-1-yl-biphenyl-3-yl)-amide] | 3 to 30 |
| O=C(Nc1cc(C(F)(F)F)ccc1N1CCNCC1)Oc1cccc2ccccc12 [Compound 150, (2-Piperazin-1-yl-5-trifluoromethyl-phenyl)-carbamic acid naphthalen-1-yl ester] | 3 to 30 |
